Key:
Type in all cases: biochemical
NANOLUC® Luciferase [1] = biological target: T1, NANOLUC® Luciferase (Oplophorus gracilirostris, UniProt Q9GV45, A31E/A60N/A81I/F95D/I117V/K70R/L54V/L99Q/M102K/N193R/P142E/Q151K/Q38R/Q45L/V71I/Y165I); assay: Luminescence assay with purified NANOLUC luciferase (Example 7); conditions: bioluminescence with NANOLUC luciferase
Protocol: Each compound to be screened was dissolved in DMSO (5 mM) and then further diluted to 100 uM in NANO-GLO® Luciferase Assay Buffer. Each diluted substrate was then combined in equal volumes with purified NANOLUC® Luciferase diluted into CO2 independent media+10% FBS. Initial light output for each substrate was measured in a GLOMAXI-Multi+luminometer three minutes after substrate addition and then at five minute intervals as a means to determine signal half-life.
The synthesized coelenterazine analogues (compounds of formula (I) and (II)) were evaluated for their suitability as luciferase substrates. NANOLUC® luciferase was employed for the screening because it is a small (19 kDa), stable, and particularly bright enzyme.

NANOLUC® Luciferase [2] = biological target: T1, NANOLUC® Luciferase; assay: Spectral measurements in various buffers with NANOLUC luciferase (Example 10); conditions: for shift of the NanoLuc luciferase spectral properties: FIGS. 3A-3C and 4A-4D; for NanoGlo (spectral peak, Table 4) / OptiMEM (spectral peak, Table 4) / High / Low / Peak / Width: NanoLuc; for NanoGlo (spectral peak, Table 4): NanoGlo buffer; for High / Low / Peak / Width: emission spectrum
Protocol: (§1) Each compound to be screened was diluted to a concentration of 100 uM (50 uM final concentration) in Renilla Glo Luciferase Assay buffer (Promega Corporation), NANO-GLO Luciferase Assay Buffer (Promega Corporation), or 20 uM (10 uM final) in OptiMEM+0.1% FBS. NANOLUC® luciferase and Renilla luciferase were serially diluted to 4, 40, and 400 ng/ml in OptiMEM+0.1% FBS. 50 ul of each compound dilution was mixed with 50 ul enzyme dilution and incubated for 1 minute at room temperature. Autoluminescence spectra of AS-353 was measured by adding 20 uM of substrate to OptiMEM+20% FBS and then 50 ul of this dilution was combined with 50 ul of OptiMEM+0.1% FBS. Spectral measurements were measured using a Tecan M-1000 luminometer. ([…]).

NANOLUC® Luciferase [3] = biological target: T1, NANOLUC® Luciferase; assay: Luminescence assay with purified NANOLUC luciferase (Example 7); conditions: value marked (Autolum): autoluminescence
NANOLUC® Luciferase [4] = biological target: T1, NANOLUC® Luciferase; assay: Enzyme titration with NanoLuc luciferase (Example 9B); conditions: NanoLuc luciferase, FIG. 2B
Protocol: Renilla luciferase and NanoLuc Lucifersase were diluted to a concentration of 4 ug/ml (4 ng/uL) in OptiMEM+0.1% FBS. 10× serial dilutions of the luciferases were then prepared in OptiMEM+0.1% FBS. Each substrate was diluted to 100 uM into Renilla Glo Luciferase assay buffer (Promega Corporation). The 10× enzyme serial dilutions were then combined with the substrate dilutions, 50 ul mixed with 50 ul compound, and incubated for 1 minute at room temperature. Light output for each compound was measured on a GLOMAX®-Multi+ luminometer.

Renilla luciferase [5] = biological target: T2, Renilla luciferase (Renilla reniformis, UniProt P27652); assay: Spectral measurements in various buffers with Renilla luciferase (Example 10); set-up: Low / High / Width: unit not given here; conditions: for RenillaGlo (spectral peak, Table 4): RenillaGlo buffer; for High / Low / Peak / Width: emission spectrum
T2 sequence (P27652 1-311): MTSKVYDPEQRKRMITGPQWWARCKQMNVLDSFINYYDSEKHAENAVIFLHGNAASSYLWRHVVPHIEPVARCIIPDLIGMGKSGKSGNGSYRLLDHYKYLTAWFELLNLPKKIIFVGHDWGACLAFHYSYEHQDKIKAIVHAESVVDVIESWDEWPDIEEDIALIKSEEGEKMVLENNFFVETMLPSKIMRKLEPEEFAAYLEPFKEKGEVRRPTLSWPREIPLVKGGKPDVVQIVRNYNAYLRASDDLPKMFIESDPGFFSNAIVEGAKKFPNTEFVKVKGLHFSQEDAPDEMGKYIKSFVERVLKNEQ
Protocol: as §1

NANOLUC® Luciferase [6] = biological target: T1, NANOLUC® Luciferase; assay: Km and Vmax substrate titration with NanoLuc luciferase (Example 8); conditions: for light produced by NanoLuc luciferase compared to Renilla: FIGS. 1A-1D
Protocol: (§2) Each compound to be screened was diluted to a concentration of 100 uM in Renilla Glo Luciferase Assay buffer (Promega Corporation) and then further diluted to 2×serial dilution in Renilla Glo Luciferase Assay Buffer. NANOLUC® luciferase and Renilla luciferase were diluted to a concentration of 4 ng/ml in OptiMEM+0.1% FBS. 50 ul of each compound dilution was then mixed with 50 ul of each enzyme dilution and incubated for 1 minute at room temperature. Light output for each compound was measured on a GLOMAX®-Multi+ luminometer. Km and Vmax were calculated for each enzyme/substrate combination using a GraphPad Prism Michaelis-Menten non-linear fit (FIGS. 1A-ID).

Renilla luciferase [7] = biological target: T2, Renilla luciferase; assay: Km and Vmax substrate titration with Renilla luciferase (Example 8)
Protocol: as §2

[8] = NanoLuc 4 ng/ml, Renilla Glo buffer, Michaelis-Menten fit
[9] = Renilla luciferase 4 ng/ml, Renilla Glo buffer, Michaelis-Menten fit

T1 sequence (Q9GV45 28-196 with tags or gaps with the stated changes limits assumed): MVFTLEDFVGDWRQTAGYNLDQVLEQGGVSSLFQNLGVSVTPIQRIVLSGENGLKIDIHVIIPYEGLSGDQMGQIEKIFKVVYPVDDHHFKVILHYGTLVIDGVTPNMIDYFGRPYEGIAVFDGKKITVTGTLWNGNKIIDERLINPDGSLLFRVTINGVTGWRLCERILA

| SMILES | λmax, nm (NANOLUC® Luciferase [1]) [nm] | shift of the NanoLuc luciferase spectral properties (NANOLUC® Luciferase [2]) | NanoGlo (spectral peak, Table 4) (NANOLUC® Luciferase [2]) | OptiMEM (spectral peak, Table 4) (NANOLUC® Luciferase [2]) | High (NANOLUC® Luciferase [2]; NanoGlo Buffer) | Low (NANOLUC® Luciferase [2]; NanoGlo Buffer) | Peak (NANOLUC® Luciferase [2]; NanoGlo Buffer) | Width (NANOLUC® Luciferase [2]; NanoGlo Buffer) | High (NANOLUC® Luciferase [2]; OptiMEM + 0.1% FBS) | Low (NANOLUC® Luciferase [2]; OptiMEM + 0.1% FBS) | Peak (NANOLUC® Luciferase [2]; OptiMEM + 0.1% FBS) | Width (NANOLUC® Luciferase [2]; OptiMEM + 0.1% FBS) | λmax, nm (Autolum) (NANOLUC® Luciferase [3]) | RenillaGlo (spectral peak, Table 4) (Renilla luciferase [5]; Renilla) | High (Renilla luciferase [5]; Renilla/RenillaGlo) | Low (Renilla luciferase [5]; Renilla/RenillaGlo) | Peak (Renilla luciferase [5]; Renilla/RenillaGlo) | Width (Renilla luciferase [5]; Renilla/RenillaGlo) | also measured |
| --- | --- | --- | --- | --- | --- | --- | --- | --- | --- | --- | --- | --- | --- | --- | --- | --- | --- | --- | --- |
| O=c1c(Cc2ccco2)nc2c(-c3ccccc3)[nH]c(-c3ccccc3)cn1-2 [AS-174, 2-(furan-2-ylmethyl)-6,8-diphenylimidazo[1,2-a]pyrazin-3(7H)-one] | 496 | shifted the NanoLuc® luciferase spectral properties to red | 493 | 490 | 541 | 460 | 493 | 81 | 535 | 460 | 490 | 75 | – | – | – | – | – | – | – |
| N#Cc1ccc(-c2[nH]c(-c3ccccc3)cn3c(=O)c(Cc4ccco4)nc2-3)s1 [AS-262, 5-(2-(furan-2-ylmethyl)-3-oxo-6-phenyl-3,7-dihydroimidazo[1,2-a]pyrazin-8-yl)thiophene-2-carbonitrile] | 574 | shifted the NanoLuc® luciferase spectral properties to red | 577 | 574 | 634 | 535 | 577 | 99 | 625 | 532 | 574 | 93 | – | – | – | – | – | – | – |
| N#Cc1ccc(-c2[nH]c(-c3cccs3)cn3c(=O)c(Cc4ccco4)nc2-3)s1 [AS-287, 5-(2-(furan-2-ylmethyl)-3-oxo-6-(thiophen-2-yl)-3,7-dihydroimidazo[1,2-a]pyrazin-8-yl)thiophene-2-carbonitrile] | – | – | – | – | – | – | – | – | – | – | – | – | 556 (Autolum) nm | – | – | – | – | – | – |
| N#Cc1ccc(-c2[nH]c3ccccc3n3c(=O)c(Cc4ccco4)nc2-3)s1 [AS-293, 5-(2-(furan-2-ylmethyl)-1-oxo-1,5-dihydroimidazo[1,2-a]quinoxalin-4-yl)thiophene-2-carbonitrile] | – | – | – | – | – | – | – | – | – | – | – | – | 596 (Autolum) nm | – | – | – | – | – | – |
| O=c1c(Cc2ccco2)nc2c(-c3ccnc(F)c3)[nH]c(-c3ccnc(F)c3)cn1-2 [AS-295, 26,8-bis(2-fluoropyridin-4-yl)-2-(furan-2-ylmethyl)imidazo[1,2-a]pyrazin-3(7H)-one] | – | – | – | – | – | – | – | – | – | – | – | – | 520 (Autolum) nm | – | – | – | – | – | – |
| O=c1c(Cc2ccco2)nc2c(-c3ccnc4ccccc34)[nH]c(-c3ccccc3)cn1-2 [AS-310, 2-(furan-2-ylmethyl)-6-phenyl-8-(quinolin-4-yl)imidazo[1,2-a]pyrazin-3(7H)-one] | 571 | shifted the NanoLuc® luciferase spectral properties to red | 574 | 571 | 631 | 526 | 574 | 105 | 631 | 520 | 571 | 111 | – | – | – | – | – | – | – |
| O=c1c(Cc2ccco2)nc2c(-c3ccnc4ccccc34)[nH]c(-c3ccc(O)cc3)cn1-2 [AS-360, 2-(furan-2-ylmethyl)-6-(4-hydroxyphenyl)-8-(quinolin-4-yl)imidazo[1,2-a]pyrazin-3(7H)-one] | – | shifted the NanoLuc® luciferase spectral properties to red | 589 | 583 | 647 | 538 | 589 | 109 | 646 | 532 | 583 | 114 | – | 487 | 553 | 451 | 487 | 102 | luminescence rank in the panel tested (NANOLUC® Luciferase [4]): brightest luminescence in the panel tested; brighter than both Renilla and NanoLuc luciferase with AS-361 (NANOLUC® Luciferase [4]; substrate 100 uM): ~30 × |
| Oc1ccc(-c2cn3c(O)c(Cc4ccccc4)nc3c(Cc3ccccc3)n2)cc1 [Coelenterazine-H] | – | – | 466 | 460 | 508 | 433 | 466 | 75 | 502 | 433 | 460 | 69 | – | 490 | 541 | 454 | 490 | 87 | light produced by NanoLuc luciferase compared to Renilla (NANOLUC® Luciferase [6]): significantly more light than Renilla; Vmax (NANOLUC® Luciferase [6]; [8]): 19,790,000; Km (NANOLUC® Luciferase [6]; NanoLuc 4 ng/ml, Renilla Glo buffer, Michaelis-Menten fit, read-out: Km): 36.4 µM; more light with Renilla luciferase compared to Furimazine (Renilla luciferase [7]; FIGS. 1A-1D): ~7 ×; Km (Renilla luciferase [7]; [9]): 3.26 µM; Vmax (Renilla luciferase [7]; [9]): 64,494; OptiMEM (spectral peak, Table 4) (Renilla luciferase [5]; Renilla): 487; High (Renilla luciferase [5]; Renilla, OptiMEM + 0.1% FBS): 535; Low (Renilla luciferase [5]; Renilla, OptiMEM + 0.1% FBS): 451; Peak (Renilla luciferase [5]; Renilla, OptiMEM + 0.1% FBS): 487; Width (Renilla luciferase [5]; Renilla, OptiMEM + 0.1% FBS): 84 |
| O=c1c(Cc2ccco2)nc2c(Cc3ccccc3)[nH]c(-c3ccccc3)cn1-2 [Furimazine, 8-benzyl-2-(furan-2-ylmethyl)-6-phenylimidazo[1,2-a]pyrazin-3(7H)-one] | 460 | – | 463 | 463 | 520 | 433 | 463 | 87 | 499 | 430 | 463 | 69 | – | 436 | 490 | 403 | 436 | 87 | light produced by NanoLuc luciferase compared to Renilla (NANOLUC® Luciferase [6]): significantly more light than Renilla; Vmax (NANOLUC® Luciferase [6]; [8]): 33,470,000; Vmax (Renilla luciferase [7]; [9]): 8,910; OptiMEM (spectral peak, Table 4) (Renilla luciferase [5]; Renilla): 430; High (Renilla luciferase [5]; Renilla, OptiMEM + 0.1% FBS): 472; Low (Renilla luciferase [5]; Renilla, OptiMEM + 0.1% FBS): 403; Peak (Renilla luciferase [5]; Renilla, OptiMEM + 0.1% FBS): 430; Width (Renilla luciferase [5]; Renilla, OptiMEM + 0.1% FBS): 69 |

From US10000500B2 (PROMEGA CORPORATION, priority 2016, dated 2018)
